Measured values published in US12083138B2, “Methods to reduce complications of intra-articular steroid” (TAIWAN LIPOSOME CO., LTD., priority 2018, dated 2024).

Tests used:
chondrocyte = settings: compared among hydrocortisone, triamcinolone and dexamethasone; cited from earlier work
cartilage = assay: Cartilage toluidine blue staining, comparison of TLC599 with TA and ER-TA, Study #75903-18-214
Procedure: Proteoglycan loss was evaluated by cationic dyes, toluidine blue, that staining proteoglycans.

SMILES | effectiveness to induce chondrocyte apoptosis (chondrocyte) | proteoglycan loss (toluidine blue staining) (cartilage; high dose 18.75 mg/knee, single IA injection, vs saline (FIG. 3)) | proteoglycan loss in cartilage (cartilage; single dose (FIG. 3))
C[C@@H]1C[C@H]2[C@@H]3CCC4=CC(=O)C=C[C@]4(C)[C@@]3(F)[C@@H](O)C[C@]2(C)[C@@]1(O)C(=O)CO [dexamethasone] | most effective | – | –
CC1(C)O[C@@H]2C[C@H]3[C@@H]4CCC5=CC(=O)C=C[C@]5(C)[C@@]4(F)[C@@H](O)C[C@]3(C)[C@]2(C(=O)CO)O1 [TA, triamcinolone acetonide] | – | significantly proteoglycan loss compared to saline | moderate proteoglycan loss
